Experimental data from PMC6268357, “Synthesis and Biological Evaluation of New Ligustrazine Derivatives as Anti-Tumor Agents” (Molecules, 2012).
Converted amounts (≈) assume the structure as drawn. “Also recorded” adds a separate entry of the source.

How the values were obtained:
[1] = tested on: Bel-7402 human cancer cell line; experiment: MTT anti-proliferation assay, Bel-7402; assay type: cell-based; conditions: MTT, 96 h exposure, maximal tested concentration 10.0 ig/mL; for IC50: Homo sapiens, Bel-7402, read-out: IC50 Bel 7402
Procedure: (§1) The cytotoxicities of these compounds were tested on five cancer cell lines by the standard MTT assay. […] The growing tumor cells at a density 10^4 cells/mL were exposed to various concentrations of the tested drugs and incubated in a 96-well microtiter plate for 96 h (37 °C, 5% CO2). After MTT solution (20 μL, 5 mg/mL) was added to each well, the plate was incubated for a further 4 h. Then the media was removed. Formazan crystals were dissolved with DMSO (150 μL). After mixing well, the absorbance was quantified at 570 nm with a BIORAD 550 spectrophotometer. Wells containing no drugs were used as blanks. […] Tumor cell growth inhibitory rate was calculated in the following equation (1): [drawing 3] (1)

[2] = tested on: A-549 human cancer cell line; experiment: MTT anti-proliferation assay, A549; assay type: cell-based; conditions: MTT, 96 h exposure, maximal tested concentration 10.0 ig/mL; for IC50: Homo sapiens, A549, read-out: IC50 A549
Procedure: as §1

[3] = tested on: HCT-8 human cancer cell line; experiment: MTT anti-proliferation assay, HCT-8; assay type: cell-based; conditions: MTT, 96 h exposure, maximal tested concentration 10.0 ig/mL; for IC50: Homo sapiens, HCT-8, read-out: IC50 HCT-8
Procedure: as §1

[4] = tested on: BGC-823 human cancer cell line; experiment: MTT anti-proliferation assay, BGC-823; assay type: cell-based; conditions: MTT, 96 h exposure, maximal tested concentration 10.0 ig/mL; for IC50: Homo sapiens, BGC-823, read-out: IC50 BGC-823
Procedure: as §1

[5] = tested on: A2780 human cancer cell line; experiment: MTT anti-proliferation assay, A2780; assay type: cell-based; conditions: MTT, 96 h exposure, maximal tested concentration 10.0 ig/mL; for IC50: Homo sapiens, A2780, read-out: IC50 A2780
Procedure: as §1

[6] = tested on: chick chorioallantoic membrane (CAM); experiment: Chick chorioallantoic membrane (CAM) angiogenesis assay; assay type: in vivo, White Leghorn chicken; conditions: for Number of microvessels on CAM, treatment (mean ± s): n = 6, implanted day 7, read day 11, microvessels 1 to 100 μm in diameter; for Anti-angiogenesis effect on CAM (in words): doses of 10 μg/egg and 40 μg/egg
Procedure: Fertilized White Leghorn chicken eggs, provided by the Chinese Academy of Agricultural Sciences, were placed in an incubator as soon as embryogenesis started and were kept under constant humidity of 65% at 37 °C. On day 7, a square window was opened on the shell and physiological saline (0.1 mL) was injected in to detach the shell membrane. Then gelatin sponges carrying the TMP stimulator derivatives at 10 μg/egg and 40 μg/egg were implanted, respectively. The control group was treated with physiological saline. The windows were sealed with medical adhesive tape and the incubation went on till the experiment day. The above steps were performed under sterile conditions. On the 11th day, the tapes were removed and the entire CAM was detached after tissue fixation with methanol/acetone (1:1, v/v). Then we used computer-assisted image tracking to obtain absolute values for the number of microvessels which were 1 to 100 μm in diameter. Data were analyzed using the t-test option of the of Statistics Analysis System, the values were expressed as mean ± s of 6 observations and P < 0.05 was considered significant.

[7] = Acute toxicity by oral administration in mice; assay type: in vivo; conditions: both sexes, Kunming, mouse, in vivo, 3 g/kg, oral administration
Procedure: (§2) Kunming mice (Beijing Vital River Laboratory Animal Technology Company Limited, China) of both sexes, weighing 18–22 g, were divided into […] matched in weight and size. The mice were placed in cages and kept under standard environmental conditions with a standard rodent diet and water ad libitum under a 12 h light-dark cycle. They were deprived of food for 24 h but allowed free access to tap water throughout the experiments. This research was carried out in accordance with the “Regulation for the Administration of Affairs Concerning Experimental Animals” (State Council of China, 1988).
(§3) The maximum suspended dose (75 mg/mL) of 5 was prepared in bean oil solution, then one group of 20 mice of both sexes were administered the maximum tolerated dose (0.4 mL/10 g) by oral administration. The other 20 mice, the control group, were gave bean oil (0.4 mL/10 g) via gavage.The general behavior of the mice was observed continuously for 1 h after the treatment and then intermittently for 4 h, and thereafter over a period of 24 h. The mice were further observed for up to 14 days following treatment for any signs of toxicity and deaths, and the latency of death. Behavioral, toxic effects and mortality response were recorded.

[8] = tested on: Kunming mice; experiment: Acute toxicity by oral administration in mice; assay type: in vivo; conditions: oral (gavage) 3 g/kg in bean oil, observed two weeks
Procedure: as §2, §3

Row | Molecule | IC50 [1] [µg/mL] | IC50 [2] [µg/mL] | IC50 [3] [µg/mL] | IC50 [4] [µg/mL] | IC50 [5] [µg/mL] | Number of microvessels on CAM, treatment (mean ± s) ([6]; dose 10 μg/egg) | Number of microvessels on CAM, treatment (mean ± s) ([6]; dose 40 μg/egg) | Anti-angiogenesis effect on CAM (in words) [6] | LD50 at 14 days [7] [mg/kg] | MTD at 14 days ([7]; read-out: Maximum tolerated dose) [mg/kg] | Deaths or signs of toxicity [8] | IC50 Bel 7402 [1] [µg/mL] | IC50 A549 [2] [µg/mL] | IC50 HCT-8 [3] [µg/mL] | IC50 BGC-823 [4] [µg/mL] | IC50 A2780 [5] [µg/mL]
1 | C=C(CCC(C(=O)OCc1nc(C)c(C)nc1C)C1[C@H](O)C[C@@]2(C)C3=C(CCC12C)C1(C)CCC(OC(C)=O)C(C)(C)C1CC3)C(C)C (stereo partly drawn) [Compound 8, 3β-Acetoxy-16α-hydroxy-lanosta-8,24(31)-diene-21-oic acid-3,5,6-trimethylpyrazin-2-methyl ester] | > 10 | > 10 | > 10 | > 10 | > 10 | 9.7 ± 3.98 | 10.8 ± 5.12 |  |  |  |  |  |  |  |  | 
2 | Cc1nc(C)c(COC(=O)CC[C@@H](C)C2CCC3C4CCC5C[C@H](O)CCC5(C)C4C[C@H](O)C32C)nc1C (stereo partly drawn) [Compound 5, 3 α,12α-Dihydroxy-5β-dholanic acid-3,5,6-trimethylpyrazin-2-methyl ester] | 8.01 (≈ 15.2 µM) | 6.69 (≈ 12.7 µM) | 7.43 (≈ 14.1 µM) | 6.66 (≈ 12.6 µM) | 6.62 (≈ 12.6 µM) | 4.8 ± 3.71 | 7.5 ± 3.40 | dramatically block the growth of new vessels | > 3000 | 3000 | no deaths or signs of toxicity observed; also recorded: no toxicity |  |  |  |  | 
3 | Cc1nc(C)c(COC(=O)[C@@]2(C)CCC3(C)CC[C@]4(C)C(=CC(=O)C5C6(C)CCC(O)C(C)(C)C6CCC54C)C3C2)nc1C (stereo partly drawn) [Compound 10, (3β,18α,20β)-3-Hydroxy-11-oxoolean-12-en-29-oicacid-3,5,6-trimethylpyrazin-2-methyl ester] | > 10 | > 10 | > 10 | > 10 | > 10 | 9.5 ± 1.76 | 9.8 ± 2.14 |  |  |  |  |  |  |  |  | 
4 | O=C(O)/C=C/c1ccccc1 [CIA, cinnamic acid] | > 10 | > 10 | > 10 | > 10 | > 10 |  |  |  |  |  |  |  |  |  |  | 
5 | CC1(C)[C@@H](O)CC[C@]2(C)[C@H]3C(=O)C=C4[C@@H]5C[C@@](C)(C(=O)O)CC[C@]5(C)CC[C@@]4(C)[C@]3(C)CC[C@@H]12 [GA, glycyrrhetinic acid] | > 10 | > 10 | > 10 | > 10 | > 10 |  |  |  |  |  |  |  |  |  |  | 
6 | C[C@H](CCC(=O)O)[C@H]1CC[C@H]2[C@@H]3CC[C@@H]4C[C@H](O)CC[C@]4(C)[C@H]3C[C@H](O)[C@]12C [DA, deoxycholic acid] | > 10 | > 10 | > 10 | > 10 | > 10 |  |  |  |  |  |  |  |  |  |  | 
7 | 1,7-bis(4-(3,5,6-Trimethylpyrazin-2-yl)-3-methoxyphenyl)-1,6-heptadiene-3,5-dione [Compound 4] |  |  |  |  |  | 3.8 ± 2.79 | 1.4 ± 1.22 | dramatically block the growth of new vessels |  |  |  | 6.391 | 5.890 | 7.106 | 5.472 | 5.540
8 | C=C(CC[C@@H](C(=O)O)[C@H]1[C@H](O)C[C@@]2(C)C3=C(CC[C@]12C)[C@@]1(C)CC[C@H](OC(C)=O)C(C)(C)[C@@H]1CC3)C(C)C [PA, pachymic acid] | > 10 | > 10 | > 10 | > 10 | > 10 |  |  |  |  |  |  |  |  |  |  | 
9 | COc1cc(/C=C/C(=O)CC(=O)/C=C/c2ccc(O)c(OC)c2)ccc1O [CU, curcumin] | 6.5 (≈ 17.6 µM) | 6.52 (≈ 17.7 µM) | 6.28 (≈ 17 µM) | 6.81 (≈ 18.5 µM) | 6.52 (≈ 17.7 µM) |  |  |  |  |  |  |  |  |  |  | 
